Values quoted from earlier work as cited in patent US20070082912A1, “Pyrrole compounds for the treatment of prostaglandine mediated diseases” (priority 2002, published 2007).

Assays:
[1] = test system: rat model of chronic constriction injury; conditions: Anesthesia and Analgesia 2001, 93, 1012-7
[2] = test system: rodent model of post-operative pain; conditions: Anesthesia and Analgesia 2001, 92, 233-238

For `Cc1cc(Cl)ccc1S(=O)(=O)NC[C@H]1C2CCC(CC2)[C@@H]1/C=C\CCCC(=O)O` [ONO-871 1], the hyperalgesia and allodynia [1] is given as “reduces hyperalgesia and allodynia” and the mechanical hyperalgesia [2] is given as “inhibits mechanical hyperalgesia”.
